Experimental data reported in patent publication US5736376A, “Recombinant endothelin converting enzyme-2 and its use in ECE inhibitor screening” (Board of Regents, The University of Texas System, priority 1995, dated 1998).
Where two headings read alike, the source gives them in different places.

Columns and labels:
[1] = tested on: this family of metalloproteases; details: Opgenorth et al., 1992; cited from earlier work
ECE-1 [2] = biological target: T1, ECE-1 (Bos taurus, UniProt P42891); details: high concentrations; Xu et al., 1994; cited from earlier work
T1 construct: made in house
T1 sequence (P42891 1-754): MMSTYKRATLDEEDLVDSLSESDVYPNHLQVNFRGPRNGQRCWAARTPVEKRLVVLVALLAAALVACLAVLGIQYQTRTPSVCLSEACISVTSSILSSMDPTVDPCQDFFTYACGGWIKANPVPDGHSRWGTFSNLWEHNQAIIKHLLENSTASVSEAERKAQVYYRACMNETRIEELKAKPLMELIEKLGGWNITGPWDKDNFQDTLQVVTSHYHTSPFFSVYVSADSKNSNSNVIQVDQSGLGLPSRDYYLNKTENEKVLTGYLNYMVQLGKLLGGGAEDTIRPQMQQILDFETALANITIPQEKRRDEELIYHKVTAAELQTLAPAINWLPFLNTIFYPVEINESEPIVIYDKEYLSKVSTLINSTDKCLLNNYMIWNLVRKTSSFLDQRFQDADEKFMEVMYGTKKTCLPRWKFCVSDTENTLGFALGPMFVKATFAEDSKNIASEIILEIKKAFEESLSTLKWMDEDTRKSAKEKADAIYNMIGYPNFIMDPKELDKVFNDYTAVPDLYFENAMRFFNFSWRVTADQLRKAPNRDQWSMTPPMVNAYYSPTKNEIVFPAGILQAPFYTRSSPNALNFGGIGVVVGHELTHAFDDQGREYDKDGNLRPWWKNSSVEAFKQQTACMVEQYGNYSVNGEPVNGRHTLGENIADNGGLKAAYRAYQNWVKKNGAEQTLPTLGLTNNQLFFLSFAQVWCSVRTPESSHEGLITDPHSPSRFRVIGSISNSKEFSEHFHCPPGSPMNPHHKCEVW

ECE-1 [3] = biological target: T1, ECE-1; assay: Protease inhibitor assay of ECE-1, solubilized CHO/ECE-1 membranes, big ET-1 conversion, pH 6.8; format: biochemical, bovine; details: sensitivity to protease inhibitors, Table 2
Experimental: Solubilized crude membranes were prepared in parallel from CHO/ECE-2 and CHO/ECE-1 cells as described (Xu et al., 1994). For protease inhibitor studies, membranes were prepared without protease inhibitors. Standard reaction mixtures for the ECE-2 assay (50 μl) contained 0.1M 2-[N-morpholino]ethanesulfonic acid (MES) buffer (pH 5.5), 0.5M NaCl, 0.1 μM human big ET-1 and an enzyme fraction. ECE-1 assay reactions contained 0.1M phosphate buffer (pH 6.8) instead of the MES buffer. For the pH profiling and isopeptide selectivity studies, the buffer solution (0.1M) or the substrate (0.1 μM) was substituted as designated. For the inhibitor studies, the reactions were preincubated at 37° C. with protease inhibitor or vehicle for 15 min. Reactions were started by the addition of substrate, and incubated at 37° C. for 30 min in siliconized 0.5-ml microcentrifuge tubes. […] The mixture was then directly assayed for mature ET-1 as described (Suzuki et al., 1989). Duplicate assay wells were used for each enzyme reaction. […] Protein concentrations were determined by the Bradford method (Bio-Rad) using IgG as standard.

[4] = tested on: cultured endothelial cells; details: cited from earlier work
ECE-2 [5] = biological target: T2, ECE-2 (Bos taurus, UniProt P0DPE2); assay: Protease inhibitor assay of ECE-2, solubilized CHO/ECE-2 membranes, big ET-1 conversion, pH 5.5; format: biochemical, bovine; details: in vitro (test tube), pH 5.5
T2 construct: solubilized crude membranes or live cells
Experimental: In all subsequent studies, ECE-2 assays were performed at pH 5.5.
Solubilized crude membranes were prepared in parallel from CHO/ECE-2 and CHO/ECE-1 cells as described (Xu et al., 1994). For protease inhibitor studies, membranes were prepared without protease inhibitors. Standard reaction mixtures for the ECE-2 assay (50 μl) contained 0.1M 2-[N-morpholino]ethanesulfonic acid (MES) buffer (pH 5.5), 0.5M NaCl, 0.1 μM human big ET-1 and an enzyme fraction. […] For the inhibitor studies, the reactions were preincubated at 37° C. with protease inhibitor or vehicle for 15 min. Reactions were started by the addition of substrate, and incubated at 37° C. for 30 min in siliconized 0.5-ml microcentrifuge tubes. […] The mixture was then directly assayed for mature ET-1 as described (Suzuki et al., 1989). Duplicate assay wells were used for each enzyme reaction.

big endothelins = details: whole animal preparations and isolated perfused tissues; cited from earlier work
ECE-2 [6] = biological target: T2, ECE-2; assay: Double-transfection live cell assay: mature ET-1 secretion by CHO/ECE-2 cells transfected with preproET-1 cDNA; format: cell-based, bovine; details: production of mature ET-1; 12 h; ECE-2-preproET-1 double transfected cells; read-out: apparent IC50, live cell assay, CHO/ECE-2
Experimental: Production of mature ET-1 by CHO/ECE-2 cells transiently transfected with preproET-1 cDNA: Cleavage of endogenously produced big ET-1. Doubly transfected cells were cultured for 12 h in the absence or presence of the designated concentrations of ECE inhibitors, and mature ET-1 in the conditioned medium was determined. Negative control studies with parental CHO cells are shown by dashed lines.
CHO/ECE-2 cells and untransfected CHO cells were transiently transfected in parallel with a preproET-1 construct, and mature ET-1 secreted from these cells into the medium was determined by EIA.
CHO-K1 cells were cultured as described (Xu et al., 1994). Since many batches of tissue culture-grade trypsin preparations contained high levels of metalloprotease contaminants with an ECE-like activity, a highly purified crystallized preparation of trypsin (Sigma, Catalog No. T7418) was dissolved in phosphate-buffered saline at 0.013% (w/v) and used for all trypsinization procedures. […] Twelve hours after the transient transfection, cells were refed with fresh medium with or without ECE inhibitors. The medium was conditioned for an additional 12 h and directly subjected to enzyme immunoassay (EIA) for mature ET-1 (Suzuki et al., 1989).

T2 sequence (P0DPE2 97-883): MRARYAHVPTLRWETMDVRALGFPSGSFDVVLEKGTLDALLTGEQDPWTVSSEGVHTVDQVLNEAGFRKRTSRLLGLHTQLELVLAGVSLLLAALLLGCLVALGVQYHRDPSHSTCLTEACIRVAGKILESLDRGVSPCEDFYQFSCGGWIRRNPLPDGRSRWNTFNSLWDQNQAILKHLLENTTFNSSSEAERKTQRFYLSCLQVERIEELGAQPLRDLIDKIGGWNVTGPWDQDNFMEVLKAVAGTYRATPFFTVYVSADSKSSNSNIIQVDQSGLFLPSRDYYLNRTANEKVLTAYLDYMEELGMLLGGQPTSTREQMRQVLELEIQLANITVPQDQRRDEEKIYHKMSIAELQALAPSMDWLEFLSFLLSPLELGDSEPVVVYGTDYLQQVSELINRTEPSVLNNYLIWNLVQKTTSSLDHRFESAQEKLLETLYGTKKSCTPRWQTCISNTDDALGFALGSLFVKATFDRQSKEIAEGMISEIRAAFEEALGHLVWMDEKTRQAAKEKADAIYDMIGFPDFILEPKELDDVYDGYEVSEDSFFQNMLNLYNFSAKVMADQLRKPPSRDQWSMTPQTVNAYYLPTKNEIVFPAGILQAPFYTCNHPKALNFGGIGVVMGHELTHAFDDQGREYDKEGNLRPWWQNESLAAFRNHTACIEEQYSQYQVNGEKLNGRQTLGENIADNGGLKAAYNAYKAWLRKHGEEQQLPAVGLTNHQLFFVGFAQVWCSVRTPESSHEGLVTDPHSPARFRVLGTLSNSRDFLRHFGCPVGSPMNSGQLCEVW

CC(C)C[C@H](NP(=O)(O)O[C@@H]1O[C@@H](C)[C@H](O)[C@@H](O)[C@H]1O)C(=O)N[C@@H](Cc1c[nH]c2ccccc12)C(=O)O [Phosphoramidon]
type of inhibition [1]: competitive inhibitor
inhibition of big ET-1 conversion in ECE-1/preproET-1 doubly transfected cells (ECE-1 [2]): capable of inhibiting the conversion of big ET-1
inhibition of ECE-1 (ECE-1 [3]): inhibited
inhibition of secretion of mature ET-1 / processing of endogenous big ET-1 (words) [4]: inhibit the secretion of mature ET-1
inhibition of secretion of mature ET-1 / processing of endogenous big ET-1 (words) ([4]; listed as phosphoramidon): inhibited
IC50 (ECE-2 [5]): 0.004 µM
inhibition of vasopressor actions of exogenous big endothelins (big endothelins): inhibited
IC50 (ECE-2 [6]): ~20 µM
